Peptide text beside a SMILES is read from it. * marks the point of attachment. Cbz = O=C(OCc1ccccc1)*
Key:
HeLa cells = assay: Live-cell confocal imaging of uptake of fluorescein-labelled peptides; assay type: cell-based; details: 1000 nM
HEK-293 cells = assay: Apoptosis assay in HEK-293 cells; assay type: cell-based; details: HEK-293 non-cancer derived cells, 10 μM

## O=C1OC2(c3ccc(O)cc3Oc3cc(O)ccc32)c2ccccc21 [fluorescein]
HeLa cells
  uptake into live HeLa cells: negligible uptake

## CC(C)C[C@@H](C=O)NC(=O)[C@H](CC(C)C)NC(=O)[C@H](CC(C)C)NC(=O)OCc1ccccc1 [MG132] (Cbz-Leu-Leu-Leu-aldehyde)
HEK-293 cells
  induction of apoptosis: did induce apoptosis

— publication PMC8232551 (RSC Chemical Biology, 2020)
